In this assay the test system is 475296-252-R-J1-PDC spheroid viability. The experiment in a line: Anticancer human tumor 475296-252-R-J1-PDC patient-derived rectal carcinoma cell line growth inhibition [PI3K]. The conditions noted are these: spheroids with HUVEC and MSC; for viability, T/C: stronger effect = lower value. The method, boiled down:
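Combination activity was assessed by viability in multicellular tumor spheroids carrying HUVEC and MSC components. Agents were tested with PI3K inhibitors from a Cmax-based top dose (or 10 microM) downward in half-log increments.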

This is an account of results in PubChem BioAssay AID1963980 (Molecular Pharmacology Branch, DTP, NCI, 2024).

Each structure is given as a SMILES string. “And” between values parts separate entries of the source, which are not always exact repeats. Identical values can stand only once.
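Note: spheroids exposed to agents for seven days before readout.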

Take `CC(Cn1ccc(-c2ccc(C#N)c(Cl)c2)n1)NC(=O)c1cc(C(C)O)[nH]n1` (stereo unspecified) + Cc1nc(NC(=O)N2CCCC2C(N)=O)sc1-c1ccnc(C(C)(C)C(F)(F)F)c1: the IC50 is greater than 10 µM (curve of first compound, second compound 0.0316 µM); greater than 10 µM (curve of first compound, second compound 0.1 µM); greater than 10 µM (curve of first compound, second compound 0.316 µM); greater than 10 µM (curve of first compound, second compound 1 µM); greater than 10 µM (curve of first compound, second compound 3.16 µM); greater than 10 µM (curve of first compound, second compound 10 µM). For the same molecule, the viability, T/C (second compound 0.0316 µM, first compound 0.0316 µM) is 105%; the viability, T/C (second compound 0.0316 µM, first compound 0.1 µM) was 108%; the viability, T/C (second compound 0.0316 µM, first compound 0.316 µM) is 110%; the viability, T/C (second compound 0.0316 µM, first compound 1 µM) is 98.4%; the viability, T/C (second compound 0.0316 µM, first compound 3.16 µM) was 105%; the viability, T/C (second compound 0.0316 µM, first compound 10 µM) was 107%. The viability, T/C reads like this: (second compound 0.1 µM, first compound 0.0316 µM) 98.1%; (second compound 0.1 µM, first compound 0.1 µM) 99.7%; (second compound 0.1 µM, first compound 0.316 µM) 111%; (second compound 0.1 µM, first compound 1 µM) 105%; (second compound 0.1 µM, first compound 3.16 µM) 120%; (second compound 0.1 µM, first compound 10 µM) 112%. Also, the viability, T/C was 93.1% (second compound 0.316 µM, first compound 0.0316 µM); 104% (second compound 0.316 µM, first compound 0.1 µM); 103% (second compound 0.316 µM, first compound 0.316 µM); 97.9% (second compound 0.316 µM, first compound 1 µM); 102% (second compound 0.316 µM, first compound 3.16 µM); 99.1% (second compound 0.316 µM, first compound 10 µM). In addition, the viability, T/C by setting is: (second compound 1 µM, first compound 0.0316 µM) 95.9%; (second compound 1 µM, first compound 0.1 µM) 108%; (second compound 1 µM, first compound 0.316 µM) 91.4%; (second compound 1 µM, first compound 1 µM) 99.2%; (second compound 1 µM, first compound 3.16 µM) 111%; (second compound 1 µM, first compound 10 µM) 111%. The viability, T/C (second compound 3.16 µM, first compound 0.0316 µM) is 98.4%; the viability, T/C (second compound 3.16 µM, first compound 0.1 µM) was 96.1%; the viability, T/C (second compound 3.16 µM, first compound 0.316 µM) is 103%; the viability, T/C (second compound 3.16 µM, first compound 1 µM) was 105%; the viability, T/C (second compound 3.16 µM, first compound 3.16 µM) is 105%; the viability, T/C (second compound 3.16 µM, first compound 10 µM) is 101%. The viability, T/C (second compound 10 µM, first compound 0.0316 µM) was 90.2%; the viability, T/C (second compound 10 µM, first compound 0.1 µM) was 84.3%; the viability, T/C (second compound 10 µM, first compound 0.316 µM) is 97%; the viability, T/C (second compound 10 µM, first compound 1 µM) was 98.9%; the viability, T/C (second compound 10 µM, first compound 3.16 µM) is 95%; the viability, T/C (second compound 10 µM, first compound 10 µM) was 91.2%.
Consider `CNC(=O)c1ccc(N2C(=S)N(c3ccc(C#N)c(C(F)(F)F)c3)C(=O)C2(C)C)cc1F`, for which the viability, T/C reads like this: (compound 0.1 µM) 100% [middle of 4 runs]; (compound 0.316 µM) 96.5% [middle of 4 runs]; (compound 1 µM) 99.5% [middle of 4 runs]; (compound 3.16 µM) 102% [middle of 4 runs]; (compound 10 µM) 98.3% [middle of 4 runs]. Besides, the IC50 (curve of compound) was greater than 10 µM.
Consider `CC(Nc1ccc2c(c1)OCCn1cc(N3C(=O)OCC3C(F)F)nc1-2)C(N)=O` (stereo unspecified), for which the viability, T/C (compound 0.00316 µM) is 98.8% [middle of 8 runs]; the viability, T/C (compound 0.01 µM) is 96.9% [middle of 8 runs]; the viability, T/C (compound 0.0316 µM) is 98.1% [middle of 8 runs]; the viability, T/C (compound 0.1 µM) is 96.8% [middle of 8 runs]; the viability, T/C (compound 0.316 µM) is 91.3% [middle of 8 runs]; the viability, T/C (compound 1 µM) was 81.1% [middle of 7 runs]. The IC50 (compound alone, run of 06/12/2023) is greater than 1 µM.
Take `CC1(C)CCC(Nc2ncc(C(F)(F)F)c(-c3c[nH]c4c(P(C)(C)=O)c(C#N)ccc34)n2)CN1` (stereo unspecified): the viability, T/C was 90.7% [middle of 4 runs] (compound 0.0316 µM); 98.6% [middle of 4 runs] (compound 0.1 µM); 109% [middle of 4 runs] (compound 0.316 µM); 129% [middle of 4 runs] (compound 1 µM); 148% (2×) and 176% and 175% (compound 3.16 µM). Also, the IC50 (curve of compound) was greater than 10 µM.

Broadly, the IC50 is the concentration that inhibits the measured activity by half. For orientation: viability, T/C means the result in the treated group divided by that in the control group, in per cent.
